Experimental findings from PubChem BioAssay AID1396 (The Scripps Research Institute Molecular Screening Center, 2008) are described below.

Activity calls are given as the source filed them. How the calls were made is not given here.

The target of this experiment is Signal transducer and activator of transcription 1-alpha/beta (Homo sapiens) (UniProt P42224). The experiment can be described thus: STAT1 signalling inhibitors, dose response, cell-based, NIH 3T3, luciferase reporter (AID 1396). The conditions noted are these: NIH 3T3 fibroblasts.
Chain of Signal transducer and activator of transcription 1-alpha/beta (Homo sapiens) (P42224 whole entry, looked up): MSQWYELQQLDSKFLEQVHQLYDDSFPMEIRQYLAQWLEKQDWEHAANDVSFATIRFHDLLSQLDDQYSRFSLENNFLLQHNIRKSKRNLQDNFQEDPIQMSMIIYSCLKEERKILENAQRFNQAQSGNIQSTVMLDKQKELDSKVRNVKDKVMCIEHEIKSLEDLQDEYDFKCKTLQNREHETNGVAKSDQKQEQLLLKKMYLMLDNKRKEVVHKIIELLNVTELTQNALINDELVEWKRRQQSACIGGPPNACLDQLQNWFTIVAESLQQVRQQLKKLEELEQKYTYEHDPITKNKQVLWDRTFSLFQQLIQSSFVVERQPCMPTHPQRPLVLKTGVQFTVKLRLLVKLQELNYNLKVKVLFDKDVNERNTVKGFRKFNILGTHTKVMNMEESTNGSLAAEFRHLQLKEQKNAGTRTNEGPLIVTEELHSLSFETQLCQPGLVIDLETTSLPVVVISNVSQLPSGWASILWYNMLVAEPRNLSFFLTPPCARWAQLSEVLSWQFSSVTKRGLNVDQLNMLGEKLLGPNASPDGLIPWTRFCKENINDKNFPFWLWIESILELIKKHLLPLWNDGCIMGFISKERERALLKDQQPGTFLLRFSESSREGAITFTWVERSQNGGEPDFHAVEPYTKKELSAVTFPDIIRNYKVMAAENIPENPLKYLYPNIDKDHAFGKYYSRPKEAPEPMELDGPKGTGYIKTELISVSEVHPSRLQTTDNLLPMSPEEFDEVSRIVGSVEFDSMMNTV

Turning to `Cc1ccccc1NC(=O)C(=Cc1ccc(C(=O)O)cc1)C(=O)Nc1ccccc1C`, the IC50 (as a rule, the midpoint of a concentration-inhibition curve) was “inactive”. The same measure for `COC(=O)C1=CN(Cc2ccc(OC)c(OC)c2)C=C(C(=O)OC)C1c1cccs1`: “inactive”.

`CN1CCN(Cc2nc3ccccc3c(=O)n2Cc2nc(-c3cccc([N+](=O)[O-])c3)cs2)CC1`: the IC50 entry was “inactive”. The same measure for `CN1CCN(Cc2nc3ccccc3c(=O)n2Cc2nc(-c3ccc4ccccc4c3)cs2)CC1`: 9.58 µM.

`CCOC(=O)CCS(=O)(=O)c1nc(-c2ccccc2)cc(C(F)(F)F)n1`: the IC50 entry was “inactive”. As to `Cc1ccccc1-c1noc(N)c1C#N`, the IC50 was > 55.7 µM (inactive).

`Cc1ccc(S(=O)(=O)N2CCN(C(C(=O)Nc3ccc(F)cc3)c3ccccc3)CC2)cc1` (centres undefined): the IC50 was 7.87 µM. The same measure for `COc1ccccc1-c1cc(C(F)(F)F)nc(S(=O)(=O)CCCC(=O)Nc2cccnc2Cl)n1`: > 18.6 µM (inactive). Take `COc1ccc(-c2cc(C(F)(F)F)nc(S(=O)(=O)CCCC(=O)Nc3cccc(O)c3)n2)cc1OC`: the IC50 entry is “inactive”. The same measure for `O=C(c1ccc2c(c1)N(Cc1ccccc1)C(=O)c1ccccc1S2)N1CCCC1`: 8.43 µM; for `COc1ccc(-n2c(SCc3cccnc3)nc3c(c2=O)SCC3)cc1OC`: “inactive”. The same measure for `O=C(CSc1nc2ccccc2c(=O)[nH]1)c1ccc(O)cc1O`: 9.39 µM; for `O=c1cc(CSc2nc3ccccc3c(=O)[nH]2)c2ccc(O)cc2o1`: 4.36 µM. In the case of `CS(=O)(=O)c1nc(-c2ccco2)cc(C(F)(F)F)n1`, the IC50 is > 18.6 µM (inactive).

Turning to `CCn1c(=O)c2cc(C(=O)N3CCCC3)sc2c2ccccc21`, the IC50 entry was “inactive”. The same measure for `CC1(C)Cc2c(ccc3ccccc23)C2=C(C(=O)N3CCCC3)C(=O)C(=O)N21`: “inactive”. The same measure for `COc1ccccc1-c1cc(C(F)(F)F)nc(S(C)(=O)=O)n1`: > 18.6 µM (inactive). The same measure for `Cc1ccc(-c2csc3ncnc(Sc4nnc(CN5CCCCCC5=O)o4)c23)cc1`: 6.7 µM. Take `CCN(CC)S(=O)(=O)c1ccc(N2CCOCC2)c(NC(=O)c2cc(-c3ccccn3)nc3ccccc23)c1`: the IC50 result is “inactive”. As for `CCOC(=O)c1c(C)nc2sc3c(=O)n(-c4ccc(OC)cc4)nnc3c2c1-c1ccc(OC)cc1`, the IC50 result is “inactive”.

On to `CCOC(=O)N1CCN(C(=O)/C=C/c2c(C)nn(-c3ccc(F)cc3)c2Cl)CC1`, for which the IC50 entry was “inactive”. The same measure for `CCOc1cc(-c2noc(N)c2C#N)cc(OCC)c1OCC`: > 55.7 µM (inactive); for `CCOC(=O)N1CCN(C(=O)c2ccc(-n3c(=S)[nH]c4ccccc4c3=O)cc2)CC1`: 3.47 µM. The same measure for `CS(=O)(=O)c1nc(-c2ccccc2)cc(C(F)(F)F)n1`: 9.97 µM; for `C#Cc1ccc([C@H]2C=C(C(=O)OCC=C)O[C@@H](OCC)[C@@H]2CCCO)cc1`: “inactive”; for `Cc1ccc(C(=O)Nc2cccc(N(C)S(C)(=O)=O)c2)cc1S(=O)(=O)Nc1ccccc1`: “inactive”. The same measure for `COc1ccccc1-c1cc(C(F)(F)F)nc(S(=O)(=O)CCCC(=O)N2CCOCC2)n1`: > 6.19 µM (inactive).

For the molecule `O=C(c1ccc(Cl)cc1)N1CCN(c2ccnc3cc(Cl)ccc23)CC1`, the IC50 is > 55.7 µM (inactive). The same measure for `COc1ccc(-c2cc(C(F)(F)F)nc(S(=O)(=O)CCCC(=O)Nc3cc(C)on3)n2)cc1OC`: “inactive”; for `CCn1c(O)c(/C=N/NC(=O)c2ccncc2)c(=O)n(CC)c1=S`: 4.42 µM. The same measure for `COCC(C)NC(=O)CCS(=O)(=O)c1nc(-c2ccc(OC)cc2)cc(C(F)(F)F)n1` (centres undefined): “inactive”; for `Cc1cc(NC(=O)CCCS(=O)(=O)c2nc(-c3cccs3)cc(C(F)(F)F)n2)no1`: “inactive”; for `CS(=O)(=O)c1nc(-c2ccc(F)cc2)cc(C(F)(F)F)n1`: “inactive”. The same measure for `Cc1ccc2[nH]c3c(N4CCN(Cc5ccccc5)CC4)ncnc3c2c1`: > 55.7 µM (inactive); for `COc1ccc(CCNC(=O)Cn2c(=O)n(-c3ccc(F)cc3)c(=O)c3sccc32)cc1OC`: “inactive”. For the molecule `O=C(NNC(=O)c1cccc(S(=O)(=O)N2CCc3ccccc32)c1)c1ccccc1`, the IC50 was > 55.7 µM (inactive). As for `Cc1cccc(/C=C(\c2nc3ccccc3[nH]2)S(=O)(=O)c2ccccc2)c1`, the IC50 is > 55.7 µM (inactive). The same measure for `Cn1nnnc1Sc1ncnc2scc(-c3ccc(F)cc3)c12`: “inactive”. The same measure for `Cn1c(C(=O)N2CCN(c3ccc([N+](=O)[O-])cc3)CC2)cc2c(=O)[nH]c3ccccc3c21`: “inactive”. Consider `COC(=O)CCS(=O)(=O)c1nc(-c2ccccc2)cc(C(F)(F)F)n1`, for which the IC50 result was “inactive”. The same measure for `CCOC(=O)N1CCN(C(=O)c2ccc(CSc3ccc(Cl)cc3)cc2)CC1`: > 55.7 µM (inactive). The same measure for `COc1ccc(CCNc2ncnc3cc(OC)c(OC)cc23)cc1OC`: > 55.7 µM (inactive). The same measure for `Cc1ccc(-n2nc(C(=O)O)c3ccccc3c2=O)cc1C`: 5.2 µM; for `Cc1cc(=O)n(C(NC(=O)c2ccccc2)C(=O)c2ccccc2)cn1` (centres undefined): 9.25 µM; for `COc1ccc(CNc2ncnc3cc(Cl)ccc23)cc1OC`: “inactive”. As to `CN1CCN(Cc2nc3ccccc3c(=O)n2Cc2nc(-c3ccccc3F)cs2)CC1`, the IC50 was 4.24 µM.

As for `O=C(c1ccco1)N1CCN(c2ncnc3c2[nH]c2ccc(Br)cc23)CC1`, the IC50 result was “inactive”. The same measure for `COc1ccccc1CNc1ncnc2cc(Cl)ccc12`: > 55.7 µM (inactive). As for `COc1ccc(-c2cc(C(F)(F)F)nc(S(=O)(=O)CCCC(=O)Nc3cccnc3Cl)n2)cc1OC`, the IC50 result was “inactive”.
